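In this assay, cells in 96-well plates receive the compound at five concentrations for 48 hours. Endpoints are linearly interpolated between the surrounding concentrations. Abbreviation: GI50, concentration required for 50% inhibition of growth.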 Activity calls are given as the source filed them. Cut-off read from the data, not from the text of the source: active = GI50 up to about 1.1 µM and inactive = higher.
Assays:
Assay in all cases: inhibition of tumour cell growth, NCI panel, 48 h
[1] = test system: A498
[2] = test system: ACHN
[3] = test system: CCRF-CEM
[4] = test system: EKVX
[5] = test system: HOP-62
[6] = test system: K562
[7] = test system: LOX IMVI
[8] = test system: NCI-H522
[9] = test system: OVCAR-3
[10] = test system: OVCAR-4
[11] = test system: SK-MEL-28
[12] = test system: SK-MEL-2
[13] = test system: SN12C
[14] = test system: UACC-62
[15] = test system: UO-31
[16] = test system: MOLT-4
[17] = test system: SF-539

Measured: GI50

CCCCCCCCCCCCCCCCOC(=O)C(C(=O)OCCCCCCCCCCCCCCCC)[N+](C)(C)CCOC(C)=O
inactive: [1] 23.6 µM | [2] 19.2 µM | [3] 10.3 µM | [4] 21 µM | [5] 10.9 µM | [6] 19.5 µM | [7] 21.8 µM | [8] 5.16 µM | [9] 16.7 µM | [10] 15.9 µM | [11] 24 µM | [12] 20.1 µM | [13] 18.4 µM | [14] 21.5 µM | [15] 19.7 µM

O=C1OC(/C=C/c2ccccc2)C(=O)C1=O (stereo not given)
inactive: [1] > 100 µM | [2] > 100 µM | [3] > 100 µM | [4] > 100 µM | [5] > 100 µM | [6] > 100 µM | [16] > 100 µM | [8] > 100 µM | [10] > 100 µM | [17] > 100 µM | [11] > 100 µM | [12] > 100 µM | [14] > 100 µM | [15] > 100 µM

CC1(C)CCC(Sc2ccccc2)O1 (stereo not given)
inactive: [1] > 100 µM | [2] > 100 µM | [3] > 100 µM | [4] > 100 µM | [5] > 100 µM | [6] > 100 µM | [7] > 100 µM | [16] > 100 µM | [9] > 100 µM | [10] > 100 µM | [17] > 100 µM | [11] > 100 µM | [12] > 100 µM | [13] > 100 µM | [14] > 100 µM | [15] > 100 µM

CCn1cc(/C=C/C(C)c2cn(CC)c(=O)[nH]c2=O)c(=O)[nH]c1=O (stereo not given)
inactive: [2] > 100 µM | [3] > 100 µM | [4] > 100 µM | [5] > 100 µM | [6] > 100 µM | [7] > 100 µM | [16] > 100 µM | [8] > 100 µM | [9] > 100 µM | [10] > 100 µM | [17] > 100 µM | [11] > 100 µM | [12] > 100 µM | [13] > 100 µM | [14] > 100 µM | [15] > 100 µM

CN(C)c1ccc(/C=c2\sc3nc4ccccc4n3c2=O)cc1
inactive: [1] > 100 µM | [2] > 100 µM | [4] > 100 µM | [5] > 100 µM | [6] > 100 µM | [7] > 100 µM | [8] > 100 µM | [9] > 100 µM | [10] > 100 µM | [17] > 100 µM | [11] > 100 µM | [12] > 100 µM | [13] > 100 µM | [14] > 100 µM | [15] > 100 µM

Cn1c(=O)c(C(c2ccc([N+](=O)[O-])cc2)c2c(O)c3ccccc3n(C)c2=O)cc2ccccc21 (stereo not given)
inactive: [2] 57.8 µM | [4] 41.7 µM | [5] 27.7 µM | [6] > 100 µM | [7] 35.2 µM | [16] 41.7 µM | [8] 20 µM | [9] 55.3 µM | [10] 41.1 µM | [17] 43.6 µM | [11] 48.1 µM | [12] 59.6 µM | [13] 57.7 µM | [14] 19.2 µM | [15] 35.2 µM

COC(=O)[C@@H]1C(=O)O[C@@H](c2ccc3c(c2)OCO3)[C@@H]1C(=O)OC.COC(=O)[C@H]1C(=O)O[C@@H](c2ccc3c(c2)OCO3)[C@@H]1C(=O)OC
inactive: [1] > 100 µM | [2] > 100 µM | [3] > 100 µM | [4] > 100 µM | [5] > 100 µM | [6] > 100 µM | [7] > 100 µM | [16] > 100 µM | [8] > 100 µM | [9] > 100 µM | [10] > 100 µM | [17] > 100 µM | [11] > 100 µM | [13] > 100 µM | [14] > 100 µM | [15] > 100 µM

CC(C)=CCC/C(C)=C/CC/C(C)=C/CC/C=C(\C)CC/C=C(\C)CCC1SC1(C)C (stereo not given)
inactive: [1] > 100 µM | [2] > 100 µM | [3] > 100 µM | [4] > 100 µM | [5] > 100 µM | [6] > 100 µM | [7] > 100 µM | [16] > 100 µM | [8] > 100 µM | [10] > 100 µM | [17] > 100 µM | [11] > 100 µM | [12] > 100 µM | [13] > 100 µM | [14] > 100 µM | [15] > 100 µM

C/C=C1/C=CC2c3[nH]c4ccccc4c3CCN2C1 (stereo not given)
inactive: [2] > 400 µM | [3] > 400 µM | [4] > 400 µM | [5] > 400 µM | [6] > 400 µM | [7] > 400 µM | [16] > 400 µM | [8] 195 µM | [9] 116 µM | [17] > 400 µM | [11] > 400 µM | [12] > 400 µM | [13] > 400 µM | [14] > 400 µM

Cn1nc(-c2ccccc2)c2c(/C=C/c3ccc(F)cc3)onc2c1=O
inactive: [2] 24.1 µM | [3] > 100 µM | [4] > 100 µM | [5] > 100 µM | [6] 17.3 µM | [7] 90.4 µM | [16] > 100 µM | [8] 17.5 µM | [17] 61.9 µM | [11] > 100 µM | [13] 88.1 µM | [14] > 100 µM | [15] 29.2 µM

COCCCCCC(=O)CP(=O)(OC)OC
inactive: [1] > 100 µM | [2] > 100 µM | [3] > 100 µM | [4] > 100 µM | [5] > 100 µM | [6] > 100 µM | [7] > 100 µM | [16] > 100 µM | [8] > 100 µM | [9] > 100 µM | [17] > 100 µM | [11] > 100 µM | [12] > 100 µM | [13] > 100 µM | [14] > 100 µM | [15] > 100 µM

O=C(NCCOCCO)c1ccc(O)cc1
inactive: [1] > 100 µM | [2] > 100 µM | [3] > 100 µM | [4] 20.4 µM | [5] > 100 µM | [6] > 100 µM | [7] > 100 µM | [16] > 100 µM | [8] > 100 µM | [17] > 100 µM | [11] > 100 µM | [13] > 100 µM | [14] > 100 µM | [15] > 100 µM

COc1ccc(C2CCc3cc4c(cc3/C2=N/OC(C)=O)OCO4)cc1OC (stereo not given)
inactive: [3] 25.6 µM | [4] 29.2 µM | [5] 40.3 µM | [6] 20.2 µM | [7] 15.9 µM | [16] 15.8 µM | [8] 12 µM | [9] 15.3 µM | [10] 27.1 µM | [17] 17.9 µM | [11] 18.4 µM | [12] 27.8 µM | [13] 26.9 µM | [14] 18.2 µM | [15] 17.2 µM

From ChEMBL document CHEMBL1201862, “PubChem BioAssay data set” (2004)
